Laboratory results as given in patent publication US12077503B2, “Substituted cyclic amides and their use as herbicides” (FMC CORPORATION, priority 2015, dated 2024).
Where two headings read alike, the source gives them in different places.

What was measured:
Assay type in all cases: in vivo
[1] = system: Kochia (Kochia scoparia); experiment: Test A preemergence; conditions: Bassia scoparia, pre-emergence, 240 h; for pest or weed control at 125 g/ha: 125 g ai/ha; for pest or weed control at 500 g/ha: 500 g ai/ha, visual injury rating about 10 d after treatment, 0 to 100 scale (0 no effect, 100 complete control)
How it was run: (§1)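 Seeded soil received test chemicals as a preemergence directed spray, and seedlings at one to two leaves, 2–10 cm tall, received them postemergence, in a non-phytotoxic, surfactant-containing solvent mixture. Pots were held in a greenhouse for approximately 10 d, then rated for injury from 0, no effect, to 100, complete control.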

[2] = system: ryegrass, Italian (Italian ryegrass, Lolium multiflorum); experiment: Test A preemergence; conditions: Lolium multiflorum, pre-emergence, 240 h; for pest or weed control at 125 g/ha: 125 g ai/ha; for pest or weed control at 500 g/ha: 500 g ai/ha, visual injury rating about 10 d after treatment, 0 to 100 scale (0 no effect, 100 complete control)
How it was run: as §1

[3] = system: barnyardgrass (Echinochloa crus-galli); experiment: Test A preemergence; conditions: Echinochloa crus-galli, pre-emergence, 240 h; for pest or weed control at 125 g/ha: 125 g ai/ha; for pest or weed control at 500 g/ha: 500 g ai/ha, visual injury rating about 10 d after treatment, 0 to 100 scale (0 no effect, 100 complete control)
How it was run: as §1

[4] = system: pigweed (Amaranthus retroflexus); experiment: Test A preemergence; conditions: Amaranthus retroflexus, pre-emergence, 240 h; for pest or weed control at 125 g/ha: 125 g ai/ha; for pest or weed control at 500 g/ha: 500 g ai/ha, visual injury rating about 10 d after treatment, 0 to 100 scale (0 no effect, 100 complete control)
[5] = system: ragweed (common ragweed, Ambrosia elatior); experiment: Test A preemergence; conditions: Ambrosia artemisiifolia, pre-emergence, 240 h; for pest or weed control at 125 g/ha: 125 g ai/ha; for pest or weed control at 500 g/ha: 500 g ai/ha, visual injury rating about 10 d after treatment, 0 to 100 scale (0 no effect, 100 complete control)
How it was run: as §1

[6] = system: giant foxtail (Setaria faberii); experiment: Test A preemergence; conditions: Setaria faberi, pre-emergence, 240 h; for pest or weed control at 125 g/ha: 125 g ai/ha; for pest or weed control at 500 g/ha: 500 g ai/ha, visual injury rating about 10 d after treatment, 0 to 100 scale (0 no effect, 100 complete control)
How it was run: as §1

[7] = system: ducksalad (Heteranthera limosa); experiment: Test B flooded paddy test; conditions: Heteranthera limosa, 250 g ai/ha, Flood; 0 to 100 scale where 0 is no effect and 100 is complete control; read-out: Ducksalad plant response rating
How it was run: (§2)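 Greenhouse paddy pots with 2-leaf stage plants received compound by direct addition to floodwater 3 cm deep, kept at that level. Scored visually at 13–15 d versus controls (0 no effect; 100 complete control).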

[8] = system: rice (Oryra sativa); experiment: Test B flooded paddy test; conditions: Oryza sativa, 250 g ai/ha, Flood; 0 to 100 scale where 0 is no effect and 100 is complete control; read-out: Rice plant response rating
How it was run: as §2

[9] = system: barnyardgrass (Echinochloa crus-galli); experiment: Test B flooded paddy test; conditions: Echinochloa crus-galli, 250 g ai/ha, Flood; 0 to 100 scale where 0 is no effect and 100 is complete control; read-out: Barnyardgrass plant response rating
How it was run: as §2

[10] = system: sedge, umbrella (small-flower umbrella sedge, Cyperus difformis); experiment: Test B flooded paddy test; conditions: Cyperus difformis, 250 g ai/ha, Flood; 0 to 100 scale where 0 is no effect and 100 is complete control; read-out: Sedge, Umbrella plant response rating
How it was run: as §2

[11] = system: Kochia (Kochia scoparia); experiment: Test A postemergence; conditions: Bassia scoparia, post-emergence, 240 h, postemergence, read-out: Kochia plant response rating; for pest or weed control at 125 g/ha: 125 g ai/ha, visual injury on 0 to 100 scale (0 no effect, 100 complete control), approx. 10 d; for pest or weed control at 500 g/ha: 500 g ai/ha, 0 to 100 scale, 0 is no effect, 100 is complete control
How it was run: as §1

[12] = system: barnyardgrass (Echinochloa crus-galli); experiment: Test A postemergence; conditions: Echinochloa crus-galli, post-emergence, 240 h, postemergence; for pest or weed control at 125 g/ha: 125 g ai/ha, visual injury on 0 to 100 scale (0 no effect, 100 complete control); for pest or weed control at 500 g/ha: 500 g ai/ha
How it was run: as §1

[13] = system: pigweed (Amaranthus retroflexus); experiment: Test A postemergence; conditions: Amaranthus retroflexus, post-emergence, 240 h, postemergence, read-out: Pigweed plant response rating; for pest or weed control at 125 g/ha: 125 g ai/ha, visual injury on 0 to 100 scale (0 no effect, 100 complete control), approx. 10 d; for pest or weed control at 500 g/ha: 500 g ai/ha, 0 to 100 scale, 0 is no effect, 100 is complete control
How it was run: as §1

[14] = system: corn (Zea mays); experiment: Test A postemergence; conditions: Zea mays, post-emergence, 240 h, postemergence; for plant injury at 125 g/ha: 125 g ai/ha, visual injury on 0 to 100 scale (0 no effect, 100 complete control); for plant injury at 125 g/ha / plant injury at 500 g/ha: read-out: Corn plant response rating; for plant injury at 500 g/ha: 0 to 100 scale, 0 is no effect, 100 is complete control
How it was run: as §1

[15] = system: Galium (catchweed bedstraw, Galium aparine); experiment: Test A postemergence; conditions: Galium, post-emergence, 240 h, postemergence; for pest or weed control at 125 g/ha: 125 g ai/ha, visual injury on 0 to 100 scale (0 no effect, 100 complete control); for pest or weed control at 500 g/ha: 500 g ai/ha
How it was run: as §1

[16] = preemergence, read-out: Ryegrass, Italian plant response rating
[17] = Preemergence, visual injury rating after approximately 10 d, read-out: Barnyardgrass plant response rating (0 to 100 scale, 0 is no effect, 100 is complete control)
[18] = preemergence, read-out: Barnyardgrass plant response rating
[19] = preemergence, read-out: Pigweed plant response rating
[20] = Preemergence, visual injury rating after approximately 10 d, read-out: Foxtail, Giant plant response rating (0 to 100 scale, 0 is no effect, 100 is complete control)
[21] = preemergence, read-out: Foxtail, Giant plant response rating
[22] = approx. 10 d, read-out: Barnyardgrass plant response rating
[23] = approx. 10 d, read-out: Galium plant response rating
[24] = preemergence, 0 to 100 scale where 0 is no effect and 100 is complete control, approx. 10 d, read-out: Kochia plant response rating
[25] = preemergence, read-out: Kochia plant response rating
[26] = preemergence, 0 to 100 scale where 0 is no effect and 100 is complete control, approx. 10 d, read-out: Ryegrass, Italian plant response rating
[27] = preemergence, 0 to 100 scale where 0 is no effect and 100 is complete control, approx. 10 d, read-out: Pigweed plant response rating
[28] = preemergence, 0 to 100 scale where 0 is no effect and 100 is complete control, approx. 10 d, read-out: Ragweed plant response rating
[29] = preemergence, read-out: Ragweed plant response rating
[30] = 0 to 100 scale, 0 is no effect, 100 is complete control, read-out: Barnyardgrass plant response rating
[31] = 0 to 100 scale, 0 is no effect, 100 is complete control, read-out: Galium plant response rating

SMILES	pest or weed control at 500 g/ha [2, 16] [%]	pest or weed control at 125 g/ha [3, 17] [%]	pest or weed control at 500 g/ha [3, 18] [%]	pest or weed control at 500 g/ha [4, 19] [%]	pest or weed control at 125 g/ha [6, 20] [%]	pest or weed control at 500 g/ha [6, 21] [%]	pest or weed control at 250 g/ha [7] [%]	pest or weed control at 250 g/ha [8] [%]	pest or weed control at 250 g/ha [9] [%]	pest or weed control at 250 g/ha [10] [%]	pest or weed control at 125 g/ha [11] [%]	pest or weed control at 125 g/ha [12, 22] [%]	pest or weed control at 125 g/ha [13] [%]	plant injury at 125 g/ha ([14]; approx. 10 d) [%]	pest or weed control at 125 g/ha [15, 23] [%]	pest or weed control at 125 g/ha [1, 24] [%]	pest or weed control at 500 g/ha [1, 25] [%]	pest or weed control at 125 g/ha [2, 26] [%]	pest or weed control at 125 g/ha [4, 27] [%]	pest or weed control at 125 g/ha [5, 28] [%]	further results
Cc1cc([C@H]2CNC(=O)[C@@H]2C(=O)Nc2ccccc2S(C)(=O)=O)ccc1C(F)(F)F [Compound 1041]	0	30	60	20	80	90	100	0	0	0	0	0	0	0	40						pest or weed control at 125 g/ha ([1]; Preemergence, visual injury rating after approximately 10 d, read-out: Kochia plant response rating (0 to 100 scale, 0 is no effect, 100 is complete control)): 30%; pest or weed control at 125 g/ha ([2]; Preemergence, visual injury rating after approximately 10 d, read-out: Ryegrass, Italian plant response rating (0 to 100 scale, 0 is no effect, 100 is complete control)): 0%; pest or weed control at 125 g/ha ([4]; Preemergence, visual injury rating after approximately 10 d, read-out: Pigweed plant response rating (0 to 100 scale, 0 is no effect, 100 is complete control)): 0%; pest or weed control at 125 g/ha ([5]; Preemergence, visual injury rating after approximately 10 d, read-out: Ragweed plant response rating (0 to 100 scale, 0 is no effect, 100 is complete control)): 20%; pest or weed control at 500 g/ha ([12]; visual injury, 0 to 100 scale (0 no effect, 100 complete control), approx. 10 d, read-out: Plant response rating, Barnyardgrass): 50%; Corn plant response rating (crop injury, 0 = no effect, 100 = complete kill) at 500 g/ha ([14]; 500 g ai/ha, visual injury, 0 to 100 scale (0 no effect, 100 complete control), approx. 10 d): 30%; pest or weed control at 500 g/ha ([15]; visual injury, 0 to 100 scale (0 no effect, 100 complete control), approx. 10 d, read-out: Plant response rating, Galium): 60%
CCc1cccc([C@H]2CCNC(=O)[C@@H]2C(=O)Nc2cccc(F)c2F)c1 [Compound 1058]	40	90	100	0	90	100	0	25	35	0	0	70	0	0	50	0	30	0	0	0	pest or weed control at 500 g/ha [5, 29]: 0%; pest or weed control at 500 g/ha [11]: 20%; pest or weed control at 500 g/ha [12, 30]: 90%; pest or weed control at 500 g/ha [13]: 0%; plant injury at 500 g/ha ([14]; 500 g ai/ha): 30%; pest or weed control at 500 g/ha [15, 31]: 60%
CN1C[C@H](c2cc(F)cc(F)c2)[C@@H](C(=O)Nc2ncccc2Cl)C1=O [Compound 1097]	0		0	0		0	0	0	0	0	0	0	0	0	0	0	0	0	0	0	pest or weed control at 125 g/ha ([3]; preemergence, 0 to 100 scale where 0 is no effect and 100 is complete control, approx. 10 d, read-out: Barnyardgrass plant response rating): 0%; pest or weed control at 500 g/ha [5, 29]: 0%; pest or weed control at 125 g/ha ([6]; preemergence, 0 to 100 scale where 0 is no effect and 100 is complete control, approx. 10 d, read-out: Foxtail, Giant plant response rating): 0%; pest or weed control at 500 g/ha [11]: 0%; pest or weed control at 500 g/ha [12, 30]: 0%; pest or weed control at 500 g/ha [13]: 0%; plant injury at 500 g/ha ([14]; 500 g ai/ha): 0%; pest or weed control at 500 g/ha [15, 31]: 0%
